Laboratory results taken from PubChem BioAssay AID2060513 (Molecular Pharmacology Branch, DTP, NCI, 2025).

Test system: 299254-011-R-J1-PDC complex spheroids viability
Test: Anticancer human tumor 299254-011-R-J1-PDC patient-derived melanoma cell line growth inhibition [GQUAD]
Settings: for IC50: curve of first compound; for viability, T/C: stronger effect = lower value
Summary of the method: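 Viability of tumor cells grown as complex spheroids with endothelial and stromal cells, exposed to drug combinations. Top concentration at or near clinical Cmax (else 10 microM), diluted in half-log increments.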

[1] = second compound 0.0316 µM, first compound 0.0316 µM
[2] = second compound 0.0316 µM, first compound 0.1 µM
[3] = second compound 0.0316 µM, first compound 0.316 µM
[4] = second compound 0.0316 µM, first compound 1 µM
[5] = second compound 0.0316 µM, first compound 3.16 µM
[6] = second compound 0.0316 µM, first compound 10 µM
[7] = second compound 0.1 µM, first compound 0.0316 µM
[8] = second compound 0.1 µM, first compound 0.1 µM
[9] = second compound 0.1 µM, first compound 0.316 µM
[10] = second compound 0.1 µM, first compound 1 µM
[11] = second compound 0.1 µM, first compound 3.16 µM
[12] = second compound 0.1 µM, first compound 10 µM
[13] = second compound 0.316 µM, first compound 0.0316 µM
[14] = second compound 0.316 µM, first compound 0.1 µM
[15] = second compound 0.316 µM, first compound 0.316 µM
[16] = second compound 0.316 µM, first compound 1 µM
[17] = second compound 0.316 µM, first compound 3.16 µM
[18] = second compound 0.316 µM, first compound 10 µM
[19] = second compound 1 µM, first compound 0.0316 µM
[20] = second compound 1 µM, first compound 0.1 µM
[21] = second compound 1 µM, first compound 0.316 µM
[22] = second compound 1 µM, first compound 1 µM
[23] = second compound 1 µM, first compound 3.16 µM
[24] = second compound 1 µM, first compound 10 µM
[25] = second compound 3.16 µM, first compound 0.0316 µM
[26] = second compound 3.16 µM, first compound 0.1 µM
[27] = second compound 3.16 µM, first compound 0.316 µM
[28] = second compound 3.16 µM, first compound 1 µM
[29] = second compound 3.16 µM, first compound 3.16 µM
[30] = second compound 3.16 µM, first compound 10 µM
[31] = second compound 10 µM, first compound 0.0316 µM
[32] = second compound 10 µM, first compound 0.1 µM
[33] = second compound 10 µM, first compound 0.316 µM
[34] = second compound 10 µM, first compound 1 µM
[35] = second compound 10 µM, first compound 3.16 µM
[36] = second compound 10 µM, first compound 10 µM
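Further: spheroids exposed to the agents for seven days before readout.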
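Wherever viability, T/C is given: percent viability relative to DMSO vehicle control wells = 100%.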

CCCS(=O)(=O)Nc1ccc(F)c(C(=O)c2c[nH]c3ncc(-c4ccc(Cl)cc4)cc23)c1F + CN(C)c1ccc(Nc2c3ccc(NC(=O)CCN4CCCC4)cc3nc3cc(NC(=O)CCN4CCCC4)ccc23)cc1
IC50 (second compound 0.0316 µM): 8.59 µM
IC50 (second compound 0.1 µM): 8.1 µM
IC50 (second compound 0.316 µM): 8.91 µM
IC50 (second compound 1 µM): 7.96 µM
IC50 (second compound 3.16 µM): 8.99 µM
IC50 (second compound 10 µM): 7.92 µM
viability, T/C [1]: 116%
viability, T/C [2]: 111%
viability, T/C [3]: 116%
viability, T/C [4]: 103%
viability, T/C [5]: 108%
viability, T/C [6]: 41%
viability, T/C [7]: 105%
viability, T/C [8]: 104%
viability, T/C [9]: 101%
viability, T/C [10]: 88.4%
viability, T/C [11]: 108%
viability, T/C [12]: 38.5%
viability, T/C [13]: 106%
viability, T/C [14]: 111%
viability, T/C [15]: 89.2%
viability, T/C [16]: 103%
viability, T/C [17]: 112%
viability, T/C [18]: 43.9%
viability, T/C [19]: 105%
viability, T/C [20]: 111%
viability, T/C [21]: 97.4%
viability, T/C [22]: 88.8%
viability, T/C [23]: 94.4%
viability, T/C [24]: 39.5%
viability, T/C [25]: 98.3%
viability, T/C [26]: 95.1%
viability, T/C [27]: 112%
viability, T/C [28]: 97%
viability, T/C [29]: 90.1%
viability, T/C [30]: 45.8%
viability, T/C [31]: 110%
viability, T/C [32]: 146%
viability, T/C [33]: 116%
viability, T/C [34]: 119%
viability, T/C [35]: 111%
viability, T/C [36]: 34.5%

COc1cccc2c1C(=O)c1c(O)c3c(c(O)c1C2=O)CC(O)(C(=O)CO)CC3OC1CC(N)C(O)C(C)O1 (stereo not drawn) + CN(C)c1ccc(Nc2c3ccc(NC(=O)CCN4CCCC4)cc3nc3cc(NC(=O)CCN4CCCC4)ccc23)cc1
IC50 (second compound 0.0316 µM): 4.26 µM
IC50 (second compound 0.1 µM): 5.65 µM
IC50 (second compound 0.316 µM): 5.03 µM
IC50 (second compound 1 µM): 4.9 µM
IC50 (second compound 3.16 µM): 5.46 µM
IC50 (second compound 10 µM): 6.44 µM
viability, T/C [1]: 109%
viability, T/C [2]: 103%
viability, T/C [3]: 90.5%
viability, T/C [4]: 72.5%
viability, T/C [5]: 61.9%
viability, T/C [6]: 28.8%
viability, T/C [7]: 93.1%
viability, T/C [8]: 106%
viability, T/C [9]: 94.6%
viability, T/C [10]: 79.8%
viability, T/C [11]: 71%
viability, T/C [12]: 31.5%
viability, T/C [13]: 112%
viability, T/C [14]: 110%
viability, T/C [15]: 81%
viability, T/C [16]: 87.1%
viability, T/C [17]: 64.8%
viability, T/C [18]: 30.7%
viability, T/C [19]: 99.7%
viability, T/C [20]: 96.3%
viability, T/C [21]: 90.1%
viability, T/C [22]: 89.5%
viability, T/C [23]: 63.4%
viability, T/C [24]: 27.3%
viability, T/C [25]: 109%
viability, T/C [26]: 107%
viability, T/C [27]: 83.7%
viability, T/C [28]: 92.4%
viability, T/C [29]: 72.4%
viability, T/C [30]: 27.3%
viability, T/C [31]: 91.8%
viability, T/C [32]: 110%
viability, T/C [33]: 87.6%
viability, T/C [34]: 99.6%
viability, T/C [35]: 75.9%
viability, T/C [36]: 34%

Nc1ccn(C2OC(CO)C(O)C2(F)F)c(=O)n1 (stereo not drawn) + CN(C)c1ccc(Nc2c3ccc(NC(=O)CCN4CCCC4)cc3nc3cc(NC(=O)CCN4CCCC4)ccc23)cc1
IC50 (second compound 0.0316 µM): > 10 µM
IC50 (second compound 0.1 µM): > 10 µM
IC50 (second compound 0.316 µM): 3.16 µM
IC50 (second compound 1 µM): > 10 µM
IC50 (second compound 3.16 µM): > 10 µM
IC50 (second compound 10 µM): > 10 µM
viability, T/C [1]: 84%
viability, T/C [2]: 73.5%
viability, T/C [3]: 66.9%
viability, T/C [4]: 60.4%
viability, T/C [5]: 54.7%
viability, T/C [6]: 59.3%
viability, T/C [7]: 80.3%
viability, T/C [8]: 94.6%
viability, T/C [9]: 67.1%
viability, T/C [10]: 56.6%
viability, T/C [11]: 58.1%
viability, T/C [12]: 59.7%
viability, T/C [13]: 85.2%
viability, T/C [14]: 117%
viability, T/C [15]: 51.7%
viability, T/C [16]: 59.6%
viability, T/C [17]: 68.3%
viability, T/C [18]: 56.7%
viability, T/C [19]: 93.5%
viability, T/C [20]: 81.2%
viability, T/C [21]: 68.7%
viability, T/C [22]: 57.8%
viability, T/C [23]: 63%
viability, T/C [24]: 72.9%
viability, T/C [25]: 94.1%
viability, T/C [26]: 98.1%
viability, T/C [27]: 71.3%
viability, T/C [28]: 59.7%
viability, T/C [29]: 55.6%
viability, T/C [30]: 59%
viability, T/C [31]: 105%
viability, T/C [32]: 80.1%
viability, T/C [33]: 65.6%
viability, T/C [34]: 64.3%
viability, T/C [35]: 66.6%
viability, T/C [36]: 61.6%

O=c1[nH]cc(F)c(=O)[nH]1 + CN(C)c1ccc(Nc2c3ccc(NC(=O)CCN4CCCC4)cc3nc3cc(NC(=O)CCN4CCCC4)ccc23)cc1
IC50 (second compound 0.0316 µM): > 10 µM
IC50 (second compound 0.1 µM): > 10 µM
IC50 (second compound 0.316 µM): > 10 µM
IC50 (second compound 1 µM): > 10 µM
IC50 (second compound 3.16 µM): > 10 µM
IC50 (second compound 10 µM): > 10 µM
viability, T/C [1]: 93.3%
viability, T/C [2]: 106%
viability, T/C [3]: 105%
viability, T/C [4]: 104%
viability, T/C [5]: 110%
viability, T/C [6]: 82.9%
viability, T/C [7]: 79.3%
viability, T/C [8]: 91.4%
viability, T/C [9]: 90.7%
viability, T/C [10]: 92.2%
viability, T/C [11]: 86.7%
viability, T/C [12]: 91.5%
viability, T/C [13]: 89.2%
viability, T/C [14]: 106%
viability, T/C [15]: 80.2%
viability, T/C [16]: 93.3%
viability, T/C [17]: 104%
viability, T/C [18]: 82.6%
viability, T/C [19]: 106%
viability, T/C [20]: 91.3%
viability, T/C [21]: 93.3%
viability, T/C [22]: 84.6%
viability, T/C [23]: 103%
viability, T/C [24]: 101%
viability, T/C [25]: 82.7%
viability, T/C [26]: 103%
viability, T/C [27]: 112%
viability, T/C [28]: 95.1%
viability, T/C [29]: 115%
viability, T/C [30]: 106%
viability, T/C [31]: 91.3%
viability, T/C [32]: 96.8%
viability, T/C [33]: 98.4%
viability, T/C [34]: 94.7%
viability, T/C [35]: 90.9%
viability, T/C [36]: 96.3%
